Measurements taken from US20090264402A1, “NOVEL DIPHENYLAZETIDINONE SUBSTITUTED BY PIPERAZINE-1-SULFONIC ACID AND HAVING IMPROVED PHARMACOLOGICAL PROPERTIES” (SANOFI-AVENTIS DEUTSCHLAND GMBH, priority 2006, published 2009).

System: uptake of 14C-cholesterol in the liver
Assay: Cholesterol absorption test (14C-cholesterol uptake in the liver) in NMRI mice
Assay type: in vivo
Description: The compound of the invention of the formula I (ammonium salt) was tested for its effect using the method described below:
NMRI mice (in groups of n=4-6) are kept with a standard diet (altromin, lage (lippe)) in metabolism cages. The animals are fasted from the afternoon before administration of the radioactive tracer (^14C-cholesterol) and adapted to wire grids.
In addition, the animals are labeled with ^3H-TCA (taurocholic acid) s.c. 24 hours before the oral administration of the test meal (^14C-cholesterol in Intralipid® 20, Pharmacia-Upjohn) (e.g. 1 μCi/mouse to 5 μCi/rat).
Cholesterol absorption test: 0.25 ml/mouse Intralipid® 20 (Pharmacia-Upjohn) (spiking with 0.25 μCi ^14C-cholesterol in 0.1 mg of cholesterol) is administered orally by gavage.
Test substances are made up separately in 0.5%/(methylcellulose (Sigma)/5% Solutol (BASF, Ludwigshafen) or a suitable vehicle.
The volume for administration of the test substance is 0.5 ml/mouse. The test substance is administered immediately before the test meal (Intralipid with ^14C-cholesterol label) (cholesterol absorption test).
The livers are removed, homogenized and combusted in aliquots in an oximate (model 307, Packard) to determine the amount of ^14C-cholesterol taken up/absorbed.
The amount of ^14C-cholesterol taken up in the liver is related to the dose administered. […]

SMILES	ED50 (liver) (NMRI mice, oral, test substance given immediately before 14C-cholesterol test meal, dose which halves uptake of 14C-cholesterol in the liver relative to control) [mg/mouse]	activity relative to comparison compound LVIII from WO 2004/000804 (times better) (ratio of ED50 (liver) values) [times]
N.O=C(Oc1ccc([C@@H]2[C@@H](CC[C@H](O)c3ccc(F)cc3)C(=O)N2c2ccc(F)cc2)c(F)c1)N1CCN(S(=O)(=O)O)CC1 [I (ammonium salt), Ammonium 4-(3-fluoro-4-{(2S,3R)-1-(4-fluorophenyl)-3-[(S)-3-(4-fluoro-phenyl)-3-hydroxylpropyl]-4-oxoazetidin-2-yl}phenoxycarbonyl)piperazine-1-sulfonate]	0.01	–
O=C(Oc1ccc([C@@H]2[C@@H](CC[C@H](O)c3ccc(F)cc3)C(=O)N2c2ccc(F)cc2)c(F)c1)N1CCN(S(=O)(=O)O)CC1 [I]	–	10
